Reference: patent US11530186B2, “Inhibitors for the β-catenin / T-cell factor protein-protein interaction” (H. LEE MOFFITT CANCER CENTER AND RESEARCH INSTITUTE, INC., priority 2018, dated 2022)
Like-named read-outs stand apart in the source and are kept apart here.

Target: T1, β-catenin/Tcf protein-protein interaction (Homo sapiens, UniProt P35222)
T1 construct: Wild-type β-catenin (residues 138-781) were cloned into a pET-28b vector; 6×histidine (C); made in house; host or cells: E. coli BL21 DE3
T1 sequence (P35222 138-781): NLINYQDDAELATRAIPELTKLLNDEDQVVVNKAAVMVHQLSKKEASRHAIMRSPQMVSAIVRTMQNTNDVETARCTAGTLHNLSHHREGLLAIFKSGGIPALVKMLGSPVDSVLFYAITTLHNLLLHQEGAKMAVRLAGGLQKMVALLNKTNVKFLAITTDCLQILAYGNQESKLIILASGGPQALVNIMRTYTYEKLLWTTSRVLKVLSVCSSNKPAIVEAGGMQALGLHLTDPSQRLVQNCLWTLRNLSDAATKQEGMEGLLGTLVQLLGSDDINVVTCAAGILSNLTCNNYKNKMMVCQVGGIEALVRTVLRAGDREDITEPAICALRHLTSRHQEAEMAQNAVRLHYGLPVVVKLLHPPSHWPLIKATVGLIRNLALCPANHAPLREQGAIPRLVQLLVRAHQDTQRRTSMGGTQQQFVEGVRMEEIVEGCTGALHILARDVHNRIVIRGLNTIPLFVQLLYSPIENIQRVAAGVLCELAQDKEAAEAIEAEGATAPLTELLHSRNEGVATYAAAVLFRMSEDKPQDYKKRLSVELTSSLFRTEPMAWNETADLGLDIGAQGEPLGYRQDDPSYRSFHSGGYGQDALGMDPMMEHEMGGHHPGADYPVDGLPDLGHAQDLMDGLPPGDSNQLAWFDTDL
Experiment: FP competitive inhibition assay
Format: binding
Summary of the method: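 His-tagged human β-catenin (residues 138-781, E. coli-expressed) at 10 nM with 2.5 nM fluorescein-labeled Tcf4 (7-51) in PBS-type buffer with bovine γ-globulin and 0.01% Triton X-100. Compounds added, 1.5 h at 4 °C, 1% DMSO, before fluorescence polarization read. IC50 by nonlinear fit; Ki derived from IC50.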

[1] = Assay 1, mean ± SD (n = 3), read-out: Ki ± SD, Assay 1
[2] = Assay 2, mean ± SD (n = 3), read-out: Ki ± SD, Assay 2

SMILES: O=C(O)c1ccc2c(c1)c(CCc1ccc(Cl)cc1)c(CCc1nc3ccccc3[nH]1)n2CCc1nn[nH]n1 [Compound 29, 2-(2-(1H-benzo[d]imidazol-2-yl)ethyl)-1-(2-(2H-tetrazol-5-yl)ethyl)-3-(4-chlorophenethyl)-1H-indole-5-carboxylic acid]
- Ki [1]: 11 ± 1.8 µM
- Ki [2]: 5.2 ± 1.7 µM

SMILES: COc1ccc2sc(CCc3c(CCc4ccc(Cl)cc4)c4cc(C(=O)NCCc5ccc(Cl)cc5)ccc4n3CCc3nn[nH]n3)nc2c1 [Compound 49, 1-(2-(2H-tetrazol-5-yl)ethyl)-N,3-bis(4-chlorophenethyl)-2-(2-(5-methoxybenzo[d]thiazol-2-yl)ethyl)-1H-indole-5-carboxamide]
- Ki [1]: 0.75 ± 0.23 µM
- Ki [2]: 3.2 ± 0.24 µM

SMILES: O=C(O)c1ccc2c(c1)c(CCc1ccc3c(c1)OCCO3)c(-c1ccsc1)n2CCc1nn[nH]n1 [Compound 87, 1-(2-(2H-tetrazol-5-yl)ethyl)-3-(2-(2,3-dihydrobenzo[b][1,4]dioxin-6-yl)ethyl)-2-(thiophen-3-yl)-1H-indole-5-carboxylic acid]
- Ki [1]: 3.4 ± 0.86 µM
- Ki [2]: 1.3 ± 0.066 µM

SMILES: COc1ccc2nc(C#Cc3c(CCc4ccc(Cl)cc4)c4cc(C(=O)O)ccc4n3CCc3nn[nH]n3)sc2c1 [Compound 72, 1-(2-(2H-tetrazol-5-yl)ethyl)-3-(4-chlorophenethyl)-2-((6-methoxybenzo[d]thiazol-2-yl)ethynyl)-1H-indole-5-carboxylic acid]
- Ki [1]: 0.6 ± 0.039 µM

SMILES: Cc1cn(CCc2nn[nH]n2)c2ccccc12 [Compound 2, 1-(2-(2H-tetrazol-5-yl)ethyl)-3-methyl-1H-indole]
- Ki [1]: 348 ± 1.3 µM
- Ki [2]: 780 ± 100 µM

SMILES: COc1ccc2sc(CCc3c(CCc4ccc(Cl)cc4)c4cc(C(=O)NCc5ccsc5)ccc4n3CCc3nn[nH]n3)nc2c1 [Compound 59, 1-(2-(2H-tetrazol-5-yl)ethyl)-3-(4-chlorophenethyl)-2-(2-(5-methoxybenzo[d]thiazol-2-yl)ethyl)-N-(thiophen-3-ylmethyl)-1H-indole-5-carboxamide]
- Ki [1]: 0.83 ± 0.048 µM
- Ki [2]: 3.7 ± 0.23 µM

SMILES: COc1ccc2sc(CCc3c(CCc4ccc(Cl)cc4)c4cc(C(=O)O)ccc4n3CCc3nn[nH]n3)nc2c1 [Compound 31, 1-(2-(2H-tetrazol-5-yl)ethyl)-3-(4-chlorophenethyl)-2-(2-(5-methoxybenzo[d]thiazol-2-yl)ethyl)-1H-indole-5-carboxylic acid]
- Ki [1]: 2 ± 0.4 µM
- Ki [2]: 4.1 ± 0.6 µM
- Ki (Assay 3, mean ± SD (n = 3), read-out: Ki ± SD, Assay 3): 4.1 ± 1.2 µM
- Ki (Assay 4, mean ± SD (n = 3), read-out: Ki ± SD, Assay 4): 1.6 ± 0.12 µM

SMILES: O=C(NCc1ccon1)c1ccc2c(c1)c(CCC1CCCCC1)c(-c1ccsc1)n2CCc1nn[nH]n1 [Compound 95, 1-(2-(2H-tetrazol-5-yl)ethyl)-3-(2-cyclohexylethyl)-N-(isoxazol-3-ylmethyl)-2-(thiophen-3-yl)-1H-indole-5-carboxamide]
- Ki [1]: 3.1 ± 0.068 µM
- Ki [2]: 15 ± 2.8 µM

SMILES: CONC(=O)c1ccc2c(c1)c(CCc1ccc(C)cc1)c(-c1ccsc1)n2CCc1nn[nH]n1 [Compound 91, 1-(2-(2H-tetrazol-5-yl)ethyl)-N-methoxy-3-(4-methylphenethyl)-2-(thiophen-3-yl)-1H-indole-5-carboxamide]
- Ki [1]: 31 ± 5.8 µM

SMILES: COc1ccc2sc(CCc3c(CCc4ccc(Cl)cc4)c4cc(C(=O)NCC5CCCCC5)ccc4n3CCc3nn[nH]n3)nc2c1 [Compound 63, 1-(2-(2H-tetrazol-5-yl)ethyl)-3-(4-chlorophenethyl)-N-(cyclohexylmethyl)-2-(2-(5-methoxybenzo[d]thiazol-2-yl)ethyl)-1H-indole-5-carboxamide]
- Ki [1]: 1.4 ± 0.2 µM
- Ki [2]: 4.3 ± 0.39 µM

SMILES: O=C(O)c1ccc2c(c1)c(CCc1ccc3ccccc3c1)c(CCc1nc3ccccc3s1)n2CCc1nn[nH]n1 [Compound 36, 1-(2-(2H-tetrazol-5-yl)ethyl)-2-(2-(benzo[d]thiazol-2-yl)ethyl)-3-(2-(naphthalen-2-yl)ethyl)-1H-indole-5-carboxylic acid]
- Ki [1]: 0.61 ± 0.065 µM
